In ChEMBL document CHEMBL5442175, “EUbOPEN Chemogenomics Library - PDSP Secondary Binding” (2024):
Structures can show the parent of a compound that is named as a salt. Each block holds one molecule with its values, some of them ahead of it.

Key:
D(4) dopamine receptor = molecular target: T1, D(4) dopamine receptor (Homo sapiens, UniProt P21917); assay: (§1) PDSP Secondary Binding target: DRD4 - Compounds are tested at 10 uM concentration, plate are incubated at room temperature in the dark for 90 minutes. Reaction are stopped by vacuum filtration onto 0.3% polyethyleneimine soaked filter mats using Filtermate harvester. Scintillation cocktail is then melted onto microwave-dried filters on a hot plate and the radio activity is counted in Microbia counter.
T1 sequence (P21917 whole entry): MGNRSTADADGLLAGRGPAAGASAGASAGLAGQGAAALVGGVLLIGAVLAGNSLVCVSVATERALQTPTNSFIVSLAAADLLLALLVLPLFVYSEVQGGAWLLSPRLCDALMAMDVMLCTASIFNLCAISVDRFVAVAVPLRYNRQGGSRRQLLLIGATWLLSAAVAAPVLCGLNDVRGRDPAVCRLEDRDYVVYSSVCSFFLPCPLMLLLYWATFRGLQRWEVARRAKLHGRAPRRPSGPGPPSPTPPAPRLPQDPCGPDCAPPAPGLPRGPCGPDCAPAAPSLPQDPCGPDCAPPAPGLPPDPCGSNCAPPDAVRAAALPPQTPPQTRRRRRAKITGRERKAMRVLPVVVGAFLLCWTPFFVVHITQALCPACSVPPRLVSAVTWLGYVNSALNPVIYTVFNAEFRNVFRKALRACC

Mu-type opioid receptor = Mu-type opioid receptor (Homo sapiens, UniProt P35372); assay: as §1, with “OPRM1” for “DRD4”
[1] = molecular target: T2, Muscarinic acetylcholine receptor M5 (Homo sapiens, UniProt P08912); assay: as §1, with “CHRM5” for “DRD4”
T2 sequence (P08912 whole entry): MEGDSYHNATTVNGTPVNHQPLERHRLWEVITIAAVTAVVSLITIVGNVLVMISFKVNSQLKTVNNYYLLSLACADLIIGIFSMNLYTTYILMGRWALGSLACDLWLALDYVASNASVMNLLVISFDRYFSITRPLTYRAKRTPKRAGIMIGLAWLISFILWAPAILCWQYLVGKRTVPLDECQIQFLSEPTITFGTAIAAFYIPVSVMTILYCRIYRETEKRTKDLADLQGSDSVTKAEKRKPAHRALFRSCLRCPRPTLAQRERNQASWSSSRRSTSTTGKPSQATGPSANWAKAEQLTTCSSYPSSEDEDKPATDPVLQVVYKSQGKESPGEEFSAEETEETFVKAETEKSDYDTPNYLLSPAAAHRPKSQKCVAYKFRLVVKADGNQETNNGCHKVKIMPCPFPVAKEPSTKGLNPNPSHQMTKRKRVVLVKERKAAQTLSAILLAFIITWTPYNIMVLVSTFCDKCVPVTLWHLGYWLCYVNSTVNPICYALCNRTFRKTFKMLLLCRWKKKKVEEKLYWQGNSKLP

Translocator protein = Translocator protein (Homo sapiens, UniProt P30536); assay: as §1, with “TSPO” for “DRD4”
[2] = molecular target: Sigma non-opioid intracellular receptor 1 (Homo sapiens, UniProt Q99720); assay: as §1, with “SIGMAR1” for “DRD4”
[3] = molecular target: 5-hydroxytryptamine receptor 2A (Homo sapiens, UniProt P28223); assay: as §1, with “HTR2A” for “DRD4”
Histamine H1 receptor = Histamine H1 receptor (Homo sapiens, UniProt P35367); assay: as §1, with “HRH1” for “DRD4”
D(3) dopamine receptor = D(3) dopamine receptor (Homo sapiens, UniProt P35462); assay: as §1, with “DRD3” for “DRD4”
[4] = molecular target: Sigma intracellular receptor 2 (Homo sapiens, UniProt Q5BJF2); assay: as §1, with “TMEM97” for “DRD4”
[5] = molecular target: Sodium-dependent dopamine transporter (Homo sapiens, UniProt Q01959); assay: as §1, with “SLC6A3” for “DRD4”
[6] = molecular target: Kappa-type opioid receptor (Homo sapiens, UniProt P41145); assay: as §1, with “OPRK1” for “DRD4”
[7] = molecular target: T3, Alpha-2C adrenergic receptor (Homo sapiens, UniProt P18825); assay: as §1, with “ADRA2C” for “DRD4”
T3 sequence (P18825 whole entry): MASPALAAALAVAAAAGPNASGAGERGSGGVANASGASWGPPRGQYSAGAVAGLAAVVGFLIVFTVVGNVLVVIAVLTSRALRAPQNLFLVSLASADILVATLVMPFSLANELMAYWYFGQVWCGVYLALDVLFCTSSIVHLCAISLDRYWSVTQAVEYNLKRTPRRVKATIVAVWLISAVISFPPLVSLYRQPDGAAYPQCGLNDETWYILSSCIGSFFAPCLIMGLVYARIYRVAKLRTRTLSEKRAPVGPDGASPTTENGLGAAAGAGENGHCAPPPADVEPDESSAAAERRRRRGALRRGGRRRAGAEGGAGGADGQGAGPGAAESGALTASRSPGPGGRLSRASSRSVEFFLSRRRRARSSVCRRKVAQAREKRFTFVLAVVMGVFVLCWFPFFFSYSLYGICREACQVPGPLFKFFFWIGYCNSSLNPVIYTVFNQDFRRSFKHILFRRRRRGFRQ

[8] = molecular target: T4, Alpha-2B adrenergic receptor (Homo sapiens, UniProt P18089); assay: as §1, with “ADRA2B” for “DRD4”
T4 sequence (P18089 whole entry): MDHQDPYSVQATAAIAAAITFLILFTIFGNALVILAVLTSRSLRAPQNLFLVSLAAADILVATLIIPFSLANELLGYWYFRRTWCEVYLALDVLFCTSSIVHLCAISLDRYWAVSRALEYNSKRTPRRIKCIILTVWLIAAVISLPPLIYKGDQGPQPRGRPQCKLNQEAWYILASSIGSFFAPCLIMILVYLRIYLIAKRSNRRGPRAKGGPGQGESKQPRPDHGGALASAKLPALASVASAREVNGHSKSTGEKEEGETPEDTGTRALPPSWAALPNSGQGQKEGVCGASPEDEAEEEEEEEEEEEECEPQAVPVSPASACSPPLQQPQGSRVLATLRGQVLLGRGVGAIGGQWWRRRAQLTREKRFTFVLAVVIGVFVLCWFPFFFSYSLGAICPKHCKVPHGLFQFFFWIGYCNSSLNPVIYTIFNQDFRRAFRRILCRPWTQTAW

[9] = molecular target: 5-hydroxytryptamine receptor 2B (Homo sapiens, UniProt P41595); assay: as §1, with “HTR2B” for “DRD4”
[10] = molecular target: T5, 5-hydroxytryptamine receptor 2C (Homo sapiens, UniProt P28335); assay: as §1, with “HTR2C” for “DRD4”
T5 sequence (P28335 whole entry): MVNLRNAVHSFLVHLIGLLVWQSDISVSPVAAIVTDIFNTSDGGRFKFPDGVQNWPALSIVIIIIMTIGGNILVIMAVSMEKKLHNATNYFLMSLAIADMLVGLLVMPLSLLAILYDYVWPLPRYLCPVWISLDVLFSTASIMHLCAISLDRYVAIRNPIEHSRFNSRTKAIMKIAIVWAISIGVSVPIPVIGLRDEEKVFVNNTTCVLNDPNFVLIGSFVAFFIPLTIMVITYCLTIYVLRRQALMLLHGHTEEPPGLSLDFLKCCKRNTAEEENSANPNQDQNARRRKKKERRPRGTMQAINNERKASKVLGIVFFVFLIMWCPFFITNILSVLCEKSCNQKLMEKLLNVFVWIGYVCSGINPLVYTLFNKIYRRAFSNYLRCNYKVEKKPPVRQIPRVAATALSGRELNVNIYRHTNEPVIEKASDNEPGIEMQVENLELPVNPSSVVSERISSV

[11] = molecular target: 5-hydroxytryptamine receptor 7 (Homo sapiens, UniProt P34969); assay: as §1, with “HTR7” for “DRD4”
[12] = molecular target: 5-hydroxytryptamine receptor 5A (Homo sapiens, UniProt P47898); assay: as §1, with “HTR5A” for “DRD4”
[13] = molecular target: T6, Alpha-1B adrenergic receptor (Homo sapiens, UniProt P35368); assay: as §1, with “ADRA1B” for “DRD4”
T6 sequence (P35368 whole entry): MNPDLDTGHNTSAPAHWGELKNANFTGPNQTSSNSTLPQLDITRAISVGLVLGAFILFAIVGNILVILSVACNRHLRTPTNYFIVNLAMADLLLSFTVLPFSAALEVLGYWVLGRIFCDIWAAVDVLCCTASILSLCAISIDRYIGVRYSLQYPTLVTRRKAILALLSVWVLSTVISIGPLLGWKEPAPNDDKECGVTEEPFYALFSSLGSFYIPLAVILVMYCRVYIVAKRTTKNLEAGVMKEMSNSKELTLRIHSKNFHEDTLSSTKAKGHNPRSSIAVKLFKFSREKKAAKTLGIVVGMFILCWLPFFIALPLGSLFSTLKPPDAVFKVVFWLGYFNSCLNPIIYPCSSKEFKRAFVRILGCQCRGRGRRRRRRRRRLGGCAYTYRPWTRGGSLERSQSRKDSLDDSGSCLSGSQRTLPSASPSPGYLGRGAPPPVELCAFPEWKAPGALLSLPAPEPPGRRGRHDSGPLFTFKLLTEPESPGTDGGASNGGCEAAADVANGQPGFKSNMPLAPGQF

[14] = molecular target: 5-hydroxytryptamine receptor 1D (Homo sapiens, UniProt P28221); assay: as §1, with “HTR1D” for “DRD4”
5-hydroxytryptamine receptor 1D, sequence (P28221 whole entry): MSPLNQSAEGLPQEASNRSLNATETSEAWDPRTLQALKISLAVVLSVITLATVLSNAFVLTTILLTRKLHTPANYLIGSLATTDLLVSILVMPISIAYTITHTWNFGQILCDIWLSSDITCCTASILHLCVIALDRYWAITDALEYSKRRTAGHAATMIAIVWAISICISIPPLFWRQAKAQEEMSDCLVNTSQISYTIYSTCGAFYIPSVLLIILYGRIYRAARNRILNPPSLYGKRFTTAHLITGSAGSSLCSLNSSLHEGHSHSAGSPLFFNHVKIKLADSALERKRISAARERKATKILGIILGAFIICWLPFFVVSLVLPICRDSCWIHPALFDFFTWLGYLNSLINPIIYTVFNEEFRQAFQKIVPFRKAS

Kappa-type opioid receptor, sequence (P41145 whole entry): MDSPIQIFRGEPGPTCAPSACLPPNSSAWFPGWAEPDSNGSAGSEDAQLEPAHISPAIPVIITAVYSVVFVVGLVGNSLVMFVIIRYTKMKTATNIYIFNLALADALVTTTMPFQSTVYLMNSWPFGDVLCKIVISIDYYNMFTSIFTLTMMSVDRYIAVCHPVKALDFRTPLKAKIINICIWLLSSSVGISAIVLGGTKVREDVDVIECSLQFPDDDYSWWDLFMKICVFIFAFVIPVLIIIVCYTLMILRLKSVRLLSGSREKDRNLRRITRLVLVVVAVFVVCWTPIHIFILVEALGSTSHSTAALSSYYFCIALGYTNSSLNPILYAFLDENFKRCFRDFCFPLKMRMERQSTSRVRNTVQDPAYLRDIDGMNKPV
5-hydroxytryptamine receptor 2A, sequence (P28223 whole entry): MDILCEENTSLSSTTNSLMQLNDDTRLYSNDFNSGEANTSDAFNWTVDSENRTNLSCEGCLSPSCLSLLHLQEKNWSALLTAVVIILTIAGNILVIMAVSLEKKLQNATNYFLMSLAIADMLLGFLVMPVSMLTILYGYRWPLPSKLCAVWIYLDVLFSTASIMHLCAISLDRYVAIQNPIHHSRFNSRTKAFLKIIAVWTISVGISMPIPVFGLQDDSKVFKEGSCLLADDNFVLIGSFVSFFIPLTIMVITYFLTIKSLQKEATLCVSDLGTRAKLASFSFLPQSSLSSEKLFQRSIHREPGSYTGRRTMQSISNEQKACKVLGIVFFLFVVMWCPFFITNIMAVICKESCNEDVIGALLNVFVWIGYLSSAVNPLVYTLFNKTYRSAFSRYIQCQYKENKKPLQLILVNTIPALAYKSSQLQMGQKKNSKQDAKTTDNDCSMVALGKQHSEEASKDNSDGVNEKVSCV
Mu-type opioid receptor, sequence (P35372 whole entry): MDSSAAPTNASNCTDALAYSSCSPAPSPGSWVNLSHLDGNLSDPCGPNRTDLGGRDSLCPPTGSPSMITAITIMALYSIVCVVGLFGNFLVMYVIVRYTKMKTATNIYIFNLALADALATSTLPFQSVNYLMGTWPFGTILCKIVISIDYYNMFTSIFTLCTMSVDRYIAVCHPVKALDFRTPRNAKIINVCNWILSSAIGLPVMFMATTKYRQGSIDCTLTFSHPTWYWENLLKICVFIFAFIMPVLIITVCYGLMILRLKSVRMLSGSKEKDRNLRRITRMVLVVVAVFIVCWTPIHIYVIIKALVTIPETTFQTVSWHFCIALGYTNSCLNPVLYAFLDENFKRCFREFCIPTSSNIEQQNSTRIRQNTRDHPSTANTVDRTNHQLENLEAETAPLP
Sigma intracellular receptor 2, sequence (Q5BJF2 whole entry): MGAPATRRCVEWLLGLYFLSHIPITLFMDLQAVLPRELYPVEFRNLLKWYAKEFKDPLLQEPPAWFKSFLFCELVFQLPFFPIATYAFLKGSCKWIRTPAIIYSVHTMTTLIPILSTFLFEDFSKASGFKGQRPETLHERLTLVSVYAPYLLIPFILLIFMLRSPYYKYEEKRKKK
D(3) dopamine receptor, sequence (P35462 whole entry): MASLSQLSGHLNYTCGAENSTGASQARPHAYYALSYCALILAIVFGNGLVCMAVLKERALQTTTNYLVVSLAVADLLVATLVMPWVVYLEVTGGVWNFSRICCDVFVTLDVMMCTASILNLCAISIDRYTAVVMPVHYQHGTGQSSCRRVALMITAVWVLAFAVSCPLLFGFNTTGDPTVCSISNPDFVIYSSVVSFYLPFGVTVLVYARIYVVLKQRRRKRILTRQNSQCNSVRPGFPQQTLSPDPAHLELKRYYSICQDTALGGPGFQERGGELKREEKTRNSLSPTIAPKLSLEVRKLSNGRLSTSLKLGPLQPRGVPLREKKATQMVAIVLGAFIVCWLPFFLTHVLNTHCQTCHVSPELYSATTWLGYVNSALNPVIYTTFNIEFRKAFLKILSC
Sigma non-opioid intracellular receptor 1, sequence (Q99720 whole entry): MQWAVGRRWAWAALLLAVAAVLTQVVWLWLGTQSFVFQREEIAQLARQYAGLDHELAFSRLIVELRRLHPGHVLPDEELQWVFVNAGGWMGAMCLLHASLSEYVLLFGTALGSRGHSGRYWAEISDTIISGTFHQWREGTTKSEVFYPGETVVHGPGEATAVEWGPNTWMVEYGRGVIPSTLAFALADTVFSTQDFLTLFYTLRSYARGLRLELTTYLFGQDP
Sodium-dependent dopamine transporter, sequence (Q01959 whole entry): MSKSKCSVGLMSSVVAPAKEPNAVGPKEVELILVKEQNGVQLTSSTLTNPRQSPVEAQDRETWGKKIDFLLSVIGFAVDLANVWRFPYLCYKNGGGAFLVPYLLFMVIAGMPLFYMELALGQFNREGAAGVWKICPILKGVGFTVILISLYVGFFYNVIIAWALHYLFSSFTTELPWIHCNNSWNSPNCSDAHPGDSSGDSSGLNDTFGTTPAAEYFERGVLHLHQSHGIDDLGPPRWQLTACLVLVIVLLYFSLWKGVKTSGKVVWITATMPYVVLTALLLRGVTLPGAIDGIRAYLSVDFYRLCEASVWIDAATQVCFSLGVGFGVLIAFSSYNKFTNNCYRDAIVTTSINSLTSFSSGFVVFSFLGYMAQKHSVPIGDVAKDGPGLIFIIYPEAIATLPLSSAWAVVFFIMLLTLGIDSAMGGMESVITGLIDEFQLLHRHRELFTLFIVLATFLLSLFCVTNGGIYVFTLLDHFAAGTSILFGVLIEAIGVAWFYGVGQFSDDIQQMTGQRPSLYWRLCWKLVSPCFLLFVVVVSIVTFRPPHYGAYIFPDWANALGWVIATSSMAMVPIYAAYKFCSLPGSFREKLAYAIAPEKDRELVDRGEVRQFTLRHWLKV
Histamine H1 receptor, sequence (P35367 whole entry): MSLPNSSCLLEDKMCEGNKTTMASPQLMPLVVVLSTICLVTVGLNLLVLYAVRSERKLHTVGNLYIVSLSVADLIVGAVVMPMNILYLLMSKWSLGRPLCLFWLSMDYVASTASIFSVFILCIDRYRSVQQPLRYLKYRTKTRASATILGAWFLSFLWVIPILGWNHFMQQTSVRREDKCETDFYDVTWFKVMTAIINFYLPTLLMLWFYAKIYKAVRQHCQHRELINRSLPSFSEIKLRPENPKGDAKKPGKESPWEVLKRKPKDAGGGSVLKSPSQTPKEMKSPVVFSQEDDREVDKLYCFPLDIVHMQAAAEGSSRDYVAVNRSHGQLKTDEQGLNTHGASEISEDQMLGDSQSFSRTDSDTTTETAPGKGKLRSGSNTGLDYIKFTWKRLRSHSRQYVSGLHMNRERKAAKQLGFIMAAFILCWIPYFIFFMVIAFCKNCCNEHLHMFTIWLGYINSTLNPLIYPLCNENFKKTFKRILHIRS
5-hydroxytryptamine receptor 2B, sequence (P41595 whole entry): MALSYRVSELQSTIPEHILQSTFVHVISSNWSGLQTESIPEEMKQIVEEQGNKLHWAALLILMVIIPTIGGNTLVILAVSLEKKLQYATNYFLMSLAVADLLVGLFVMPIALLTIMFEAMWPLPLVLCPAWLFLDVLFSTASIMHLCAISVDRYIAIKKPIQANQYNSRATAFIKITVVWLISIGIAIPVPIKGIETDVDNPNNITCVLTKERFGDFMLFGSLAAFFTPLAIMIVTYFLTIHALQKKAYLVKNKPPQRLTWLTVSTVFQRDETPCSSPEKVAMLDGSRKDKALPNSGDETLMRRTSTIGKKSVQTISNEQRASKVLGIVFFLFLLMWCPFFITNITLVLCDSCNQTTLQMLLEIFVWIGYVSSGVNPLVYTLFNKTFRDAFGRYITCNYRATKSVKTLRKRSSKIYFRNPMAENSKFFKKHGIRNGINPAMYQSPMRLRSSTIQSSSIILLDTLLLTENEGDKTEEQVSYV
Translocator protein, sequence (P30536 whole entry): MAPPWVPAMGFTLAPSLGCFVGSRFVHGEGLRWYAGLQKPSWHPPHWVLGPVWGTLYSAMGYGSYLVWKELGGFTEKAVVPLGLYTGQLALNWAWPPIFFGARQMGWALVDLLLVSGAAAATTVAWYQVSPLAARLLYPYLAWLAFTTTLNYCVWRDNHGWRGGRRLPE
5-hydroxytryptamine receptor 5A, sequence (P47898 whole entry): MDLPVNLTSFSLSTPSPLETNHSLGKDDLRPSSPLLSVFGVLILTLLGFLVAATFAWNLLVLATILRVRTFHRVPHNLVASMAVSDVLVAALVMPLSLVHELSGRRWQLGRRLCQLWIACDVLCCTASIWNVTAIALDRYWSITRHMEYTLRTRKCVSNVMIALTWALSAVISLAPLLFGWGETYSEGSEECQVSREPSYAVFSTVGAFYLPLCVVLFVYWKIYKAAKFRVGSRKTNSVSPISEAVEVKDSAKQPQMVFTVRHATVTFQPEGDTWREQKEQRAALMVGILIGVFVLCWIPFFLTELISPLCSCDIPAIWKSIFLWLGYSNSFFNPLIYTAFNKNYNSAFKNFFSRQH

Ki (D(4) dopamine receptor): > 10000 nM | Ki (Mu-type opioid receptor): > 10000 nM | Ki [1]: 5230 nM
SMILES: O=C1N/C(=N/c2ccccc2F)S/C1=C\c1ccc(C(=O)O)cc1

Ki (Mu-type opioid receptor): > 10000 nM | Ki [3]: 3880 nM | Ki (Histamine H1 receptor): 1980 nM
SMILES: C/C(=N\NC(=O)[C@@H]1C(=O)NC[C@H]1c1ccccc1)c1cccc(Br)c1

Ki (D(4) dopamine receptor): 545 nM | Ki (Mu-type opioid receptor): 6270 nM | Ki (D(3) dopamine receptor): 270 nM
SMILES: CCc1cc2c(c(CC)n1)CCC(=O)N2Cc1ccc(-c2ccccc2-c2nnn[nH]2)cc1

Ki [9]: 647 nM | Ki [7]: 1720 nM | Ki [10]: 2220 nM | Ki [11]: 803 nM | Ki (D(3) dopamine receptor): 1020 nM | Ki [12]: 2110 nM | Ki [3]: 2120 nM | Ki (Translocator protein): 1660 nM | Ki [6]: 998 nM | Ki [2]: 365 nM
SMILES: CNc1nc(NCc2ccc(NS(C)(=O)=O)cc2Cl)cc(-c2ccccn2)n1

Ki [1]: > 10000 nM | Ki (Histamine H1 receptor): 5550 nM
SMILES: Cc1nnn(-c2ccc(-c3ccc(C4(C(=O)O)CC4)cc3)cc2)c1NC(=O)O[C@H](C)c1ccccc1

Ki [6]: 2380 nM
SMILES: COc1cccc(-c2c(C)n(Cc3c(F)cccc3C(F)(F)F)c(=O)n(C[C@H](NCCCC(=O)O)c3ccccc3)c2=O)c1F [ELAGOLIX SODIUM]

Ki [3]: 4610 nM | Ki [2]: 488 nM | Ki (Histamine H1 receptor): > 10000 nM
SMILES: O=C(O)C1CN(Cc2ccc(OCc3ccc(Cl)c(Cl)c3)cc2)C1

Ki (D(4) dopamine receptor): 199 nM | Ki [6]: 2120 nM | Ki [2]: 2260 nM
SMILES: c1ccc(N2CCN(Cc3nc4ccccc4[nH]3)CC2)nc1

More lines, now with the values behind:

SMILES: CCCCN(CCCC)C(=O)CN1C[C@@H](c2ccc3c(c2)OCO3)[C@H](C(=O)O)[C@H]1c1ccc(OC)cc1
Ki (D(4) dopamine receptor): 1910 nM | Ki (Translocator protein): 184 nM | Ki [2]: 2810 nM

SMILES: CSc1ccc(C(=O)N[C@@H]2CCCC[C@@H]2NC(=O)CNC(=O)c2cc(C(F)(F)F)ccc2NC(=O)NC(C)C)cc1
Ki (D(3) dopamine receptor): 1190 nM | Ki (Histamine H1 receptor): 1610 nM

SMILES: O=C(Cc1ccc(Cl)c(Cl)c1)N1CCCC[C@H]1CN1CCCC1
Ki [4]: 37 nM | Ki [5]: 4860 nM | Ki (D(4) dopamine receptor): 2030 nM | Ki [6]: 0.591 nM | Ki [2]: 11.7 nM

SMILES: C[C@H](NC[C@H](O)CP(=O)(O)CC1CCCCC1)c1ccc(Cl)c(Cl)c1
Ki [5]: 520 nM | Ki (Mu-type opioid receptor): 1280 nM | Ki [6]: 1110 nM

SMILES: NC[C@H](O)c1ccc(O)c(O)c1
Ki [7]: 386 nM | Ki [8]: 235 nM

SMILES: Cc1ccccc1N1CCN(S(=O)(=O)C[C@]23CC[C@H](C[C@@H]2NC(=O)[C@@H](N)CCS(C)(=O)=O)C3(C)C)CC1
Ki [4]: 309 nM | Ki [6]: 4.03 nM | Ki [2]: 70.1 nM

SMILES: CN(C)C(=O)C(CCN1CCC(O)(c2ccc(Cl)cc2)CC1)(c1ccccc1)c1ccccc1 [LOPERAMIDE HYDROCHLORIDE]
Ki [4]: 36.7 nM | Ki [5]: 1410 nM | Ki [9]: 362 nM | Ki [13]: 3690 nM | Ki [14]: 2600 nM | Ki (D(4) dopamine receptor): 1460 nM | Ki [2]: 169 nM
